In US11339128B2 (Firmenich Incorporated, priority 2014, dated 2022):

Experiments:
[1] = biological target: T1, T1R2/T1R3 taste receptor (Homo sapiens, UniProt Q7RTX0+Q8TE23); test: Receptor-based assay: sweetener EC50 enhancement ratio with and without test compound; format: cell-based; conditions: for Sucrose Enhancement EC50 Ratio: sweetener sucrose; for Fructose Enhancement EC50 Ratio: sweetener fructose; for Sucralose Enhancement EC50 Ratio: sweetener sucralose
T1 sequence (Q8TE23 20-839): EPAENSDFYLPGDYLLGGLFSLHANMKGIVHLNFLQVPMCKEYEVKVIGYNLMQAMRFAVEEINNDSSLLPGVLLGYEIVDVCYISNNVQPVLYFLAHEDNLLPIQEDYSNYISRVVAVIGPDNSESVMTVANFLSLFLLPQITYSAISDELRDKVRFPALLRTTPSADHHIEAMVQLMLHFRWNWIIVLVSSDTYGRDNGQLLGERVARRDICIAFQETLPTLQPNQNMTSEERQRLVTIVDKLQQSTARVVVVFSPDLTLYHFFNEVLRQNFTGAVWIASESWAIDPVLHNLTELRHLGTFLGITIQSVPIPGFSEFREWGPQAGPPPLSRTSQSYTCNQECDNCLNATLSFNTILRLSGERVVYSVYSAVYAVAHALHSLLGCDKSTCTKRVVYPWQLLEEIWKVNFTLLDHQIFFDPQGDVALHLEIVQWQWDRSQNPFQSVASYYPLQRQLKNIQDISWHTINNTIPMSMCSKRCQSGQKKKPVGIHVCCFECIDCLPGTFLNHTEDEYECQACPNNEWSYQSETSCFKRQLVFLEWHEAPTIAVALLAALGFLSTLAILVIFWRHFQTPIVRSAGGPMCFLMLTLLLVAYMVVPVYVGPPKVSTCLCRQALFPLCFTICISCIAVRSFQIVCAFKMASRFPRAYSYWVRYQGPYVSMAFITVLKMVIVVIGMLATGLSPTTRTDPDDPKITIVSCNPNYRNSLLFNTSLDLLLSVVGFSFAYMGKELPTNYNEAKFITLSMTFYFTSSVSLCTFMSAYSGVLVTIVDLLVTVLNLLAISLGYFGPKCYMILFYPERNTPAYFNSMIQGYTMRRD
T1 sequence (Q7RTX0 21-852): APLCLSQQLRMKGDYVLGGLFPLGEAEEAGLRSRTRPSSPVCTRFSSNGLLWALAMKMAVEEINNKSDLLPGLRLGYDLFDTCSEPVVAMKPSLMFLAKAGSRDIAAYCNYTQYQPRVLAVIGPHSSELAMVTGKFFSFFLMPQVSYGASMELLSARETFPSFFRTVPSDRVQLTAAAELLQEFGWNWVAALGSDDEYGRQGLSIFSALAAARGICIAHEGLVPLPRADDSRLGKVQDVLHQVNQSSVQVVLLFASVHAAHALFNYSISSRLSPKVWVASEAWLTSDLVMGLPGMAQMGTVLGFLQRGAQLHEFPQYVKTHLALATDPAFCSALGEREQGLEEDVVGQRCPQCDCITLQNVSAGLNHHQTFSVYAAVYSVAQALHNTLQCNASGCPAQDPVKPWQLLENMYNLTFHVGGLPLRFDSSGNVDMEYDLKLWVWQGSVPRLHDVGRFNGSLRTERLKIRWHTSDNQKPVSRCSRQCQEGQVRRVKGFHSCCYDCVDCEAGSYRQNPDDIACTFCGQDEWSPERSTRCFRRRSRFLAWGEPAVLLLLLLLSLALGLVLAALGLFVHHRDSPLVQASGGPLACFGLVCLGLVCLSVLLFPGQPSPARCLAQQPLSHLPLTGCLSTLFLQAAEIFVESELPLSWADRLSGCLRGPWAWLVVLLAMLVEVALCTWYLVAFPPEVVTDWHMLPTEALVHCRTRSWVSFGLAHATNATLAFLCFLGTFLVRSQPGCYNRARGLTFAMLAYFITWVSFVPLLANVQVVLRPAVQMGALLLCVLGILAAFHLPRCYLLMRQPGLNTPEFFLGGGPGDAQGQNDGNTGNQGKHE
Method in brief: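 Sweetener (sucrose, sucralose, fructose) EC50 measured alone and with 1, 3, 10 or 50 μM test compound. Enhancement ratio = EC50 without/with compound; A = >1 to <10, B = 10–20, C = >20.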

[2] = Sensory paired-comparison sweetness test of sweetener (sucrose or high-fructose corn syrup) with test compound; format: in vivo, human; conditions: test compound 10 ppm or less with 6% sucrose, low sodium buffer pH 7.1; sucrose-alone concentration of equivalent perceived sweetness
Protocol: Test samples containing either a sweetener (sucrose or high-fructose corn syrup) alone or in combination with a test compound were presented in pairs to a group of panelist who were asked to determine which of the samples was sweeter. Subjects refrained from eating or drinking (except water) for at least 1 hour prior to the test. Subjects rinsed with water several times to clean the mouth. The samples within a paired comparison test were presented in a randomized, counterbalanced order. Panelists had up to a 1 minute delay between taste tests to clear the mouth of any tastes. Binomial probability tables were used to determine the probability of the correct number of responses occurring for each test at alpha-0.05.
Stock solutions of test compounds were prepared at 1000× final concentration with ethanol to ensure dispersion in solution. Test compound samples including sucrose were prepared by diluting the stock solutions in a low sodium buffer (0.952 g of KCl, 5.444 g of Na2HPO4, and 0.952 g of KH2PO4 in deionized ultrafiltered water) at pH 7.1 and containing sucrose. Test compound samples including high fructose corn syrup were prepared by diluting the stock solutions in the low sodium buffer at pH 2.8 (using citric acid to adjust the pH) and containing high fructose corn syrup. Control samples were balanced to 0.1% ethanol final.
In samples containing the test compound, the test compound was present at a concentration of 10 ppm or less and the concentration of sucrose was 6%. This table indicates the sucrose-alone concentration having a perceived sweetness intensity equivalent to the sweetness intensity of the combination of test compound and sucrose. An “A” value indicates an equivalent sucrose concentration greater than 6% and less than 10%. A “B” value indicates an equivalent sucrose concentration of 10% or greater. […]

Structure (SMILES) | Sucrose Enhancement EC50 Ratio ([1]; 1 μM test compound) | Sucrose Enhancement EC50 Ratio ([1]; 3 μM test compound) | Fructose Enhancement EC50 Ratio ([1]; 10 μM test compound) | Sucralose Enhancement EC50 Ratio ([1]; 10 μM test compound) | Sucrose Enhancement EC50 Ratio ([1]; 10 μM test compound) | Equivalent Sucrose Conc. [2] | Sucralose Enhancement EC50 Ratio ([1]; 3 μM test compound) | Fructose Enhancement EC50 Ratio ([1]; 50 μM test compound)
COC[C@H]1CC[C@H](Oc2cccc3nc(C)c(C(=O)O)c(N)c23)CC1 [Compound 101, 4-Amino-5-((trans-4-(methoxymethyl)cyclohexyl)oxy)-2-methylquinoline-3-carboxylic acid] | C (an enhancement ratio greater than 20) | C (an enhancement ratio greater than 20) | A (an enhancement ratio of greater than 1 and less than 10) | C (an enhancement ratio greater than 20) | C (an enhancement ratio greater than 20) | A (an equivalent sucrose concentration greater than 6% and less than 10%) |  | 
CCc1nc2cccc(O[C@H]3CC[C@H](C)CC3)c2c(N)c1C(=O)O [Compound 201] | A (an enhancement ratio of greater than 1 and less than 10) | B (an enhancement ratio from 10 to 20) |  |  |  | A (an equivalent sucrose concentration greater than 6% and less than 10%) |  | 
CCCOCC(=O)N[C@H]1CC[C@H](Oc2cccc3nc(C)c(C(=O)O)c(N)c23)CC1 [Compound 305] | B (an enhancement ratio from 10 to 20) | A (an enhancement ratio of greater than 1 and less than 10) |  | C (an enhancement ratio greater than 20) | A (an enhancement ratio of greater than 1 and less than 10) | B (an equivalent sucrose concentration of 10% or greater) |  | 
Cc1nc2cccc(O[C@H]3CC[C@H](NC(=O)COC(C)C)CC3)c2c(N)c1C(=O)O [Compound 306] | B (an enhancement ratio from 10 to 20) | A (an enhancement ratio of greater than 1 and less than 10) |  | A (an enhancement ratio of greater than 1 and less than 10) | A (an enhancement ratio of greater than 1 and less than 10) | B (an equivalent sucrose concentration of 10% or greater) |  | 
Cc1nc2cccc(O[C@H]3CC[C@H](NC(=O)COCC(C)C)CC3)c2c(N)c1C(=O)O [Compound 307] | A (an enhancement ratio of greater than 1 and less than 10) | C (an enhancement ratio greater than 20) |  |  |  | B (an equivalent sucrose concentration of 10% or greater) | B (an enhancement ratio from 10 to 20) | 
CCc1cnc(N[C@H]2CC[C@H](Oc3cccc4nc(C)c(C(=O)O)c(N)c34)CC2)nc1 [Compound 711] | A (an enhancement ratio of greater than 1 and less than 10) | A (an enhancement ratio of greater than 1 and less than 10) | A (an enhancement ratio of greater than 1 and less than 10) | B (an enhancement ratio from 10 to 20) | B (an enhancement ratio from 10 to 20) |  | B (an enhancement ratio from 10 to 20) | A (an enhancement ratio of greater than 1 and less than 10)
Cc1cc(N[C@H]2CC[C@H](Oc3cccc4nc(C)c(C(=O)O)c(N)c34)CC2)nc(N)n1 [Compound 712] | A (an enhancement ratio of greater than 1 and less than 10) | B (an enhancement ratio from 10 to 20) | A (an enhancement ratio of greater than 1 and less than 10) | C (an enhancement ratio greater than 20) | C (an enhancement ratio greater than 20) |  | B (an enhancement ratio from 10 to 20) | A (an enhancement ratio of greater than 1 and less than 10)
Cc1nc2cccc(O[C@H]3CC[C@H](Nc4cnccn4)CC3)c2c(N)c1C(=O)O [Compound 713] | A (an enhancement ratio of greater than 1 and less than 10) | B (an enhancement ratio from 10 to 20) | A (an enhancement ratio of greater than 1 and less than 10) | B (an enhancement ratio from 10 to 20) | B (an enhancement ratio from 10 to 20) |  | A (an enhancement ratio of greater than 1 and less than 10) | A (an enhancement ratio of greater than 1 and less than 10)
Cc1nccc(N[C@H]2CC[C@H](Oc3cccc4nc(C)c(C(=O)O)c(N)c34)CC2)n1 [Compound 714] | A (an enhancement ratio of greater than 1 and less than 10) | A (an enhancement ratio of greater than 1 and less than 10) | A (an enhancement ratio of greater than 1 and less than 10) | A (an enhancement ratio of greater than 1 and less than 10) | A (an enhancement ratio of greater than 1 and less than 10) |  | A (an enhancement ratio of greater than 1 and less than 10) | A (an enhancement ratio of greater than 1 and less than 10)
